The source of these data is ChEMBL document CHEMBL4118101 (Bioorg Med Chem, 2018).

Assay [1] has as its system Cryptococcus neoformans. In words: Antifungal activity against Cryptococcus neoformans isolate CN2 measured after 48 hrs by CLSI M27-A3 protocol based method. In kind it is functional. The note with it: Cryptococcus neoformans, isolate CN2, 48 h; read-out: MIC.
In assay [2] the test system is Candida albicans. In words: Antifungal activity against Candida albicans ATCC 10231 measured after 48 hrs by CLSI M27-A3 protocol based method. In kind it is functional. The settings on record: ATCC 10231, 48 h.
Assay [3] has as its system Candida albicans. In words: Antifungal activity against Candida albicans ATCC 64124 measured after 48 hrs by CLSI M27-A3 protocol based method. In kind it is functional. The note with it: Candida albicans, ATCC 64124, 48 h; read-out: MIC.
In assay [4] the test system is Candida albicans. Briefly: Antifungal activity against fluconazole/ITC-susceptible Candida albicans ATCC MYA-2876 measured after 48 hrs by CLSI M27-A3 protocol based method. The format is functional. The note with it: Candida albicans, ATCC MYA-2876, 48 h.
Assay [5] concerns Candida albicans. Briefly: Antifungal activity against fluconazole/ITC-resistant Candida albicans ATCC 90819 measured after 48 hrs by CLSI M27-A3 protocol based method. The settings on record: Candida albicans, ATCC 90819, 48 h; read-out: MIC. In kind it is functional.
Assay [6] concerns Candida albicans. Briefly: Antifungal activity against fluconazole/ITC-susceptible Candida albicans ATCC MYA-2310 measured after 48 hrs by CLSI M27-A3 protocol based method. The format is functional. The note with it: Candida albicans, ATCC MYA-2310, 48 h; read-out: MIC.
Assay [7] deals with Candida albicans. Briefly: Antifungal activity against fluconazole/ITC-resistant Candida albicans ATCC MYA-1237 measured after 48 hrs by CLSI M27-A3 protocol based method. In kind it is functional. The note with it: Candida albicans, ATCC MYA-1237, 48 h; read-out: MIC.
Assay [8] has as its system Candida albicans. In words: Antifungal activity against fluconazole/ITC-resistant Candida albicans ATCC MYA-1003 measured after 48 hrs by CLSI M27-A3 protocol based method. In kind it is functional. The settings on record: Candida albicans, ATCC MYA-1003, 48 h; read-out: MIC.
Assay [9] has as its system Nakaseomyces glabratus. In words: Antifungal activity against Candida glabrata ATCC 2001 measured after 48 hrs by CLSI M27-A3 protocol based method. The format is functional, CBS 138. The settings on record: Nakaseomyces glabratus, CBS 138, 48 h; read-out: MIC.
The subject of a further assay is Pichia kudriavzevii. Briefly: Antifungal activity against Candida krusei ATCC 6258 measured after 48 hrs by CLSI M27-A3 protocol based method. The format is functional. The settings on record: Pichia kudriavzevii, ATCC 6258, 48 h.
The subject of assay [10] is Candida parapsilosis. Briefly: Antifungal activity against Candida parapsilosis ATCC 22019 measured after 48 hrs by CLSI M27-A3 protocol based method. The format is functional. The settings on record: Lodderomyces parapsilosis, ATCC 22019, 48 h.
For the next assay, the system named is Aspergillus nidulans. Briefly: Antifungal activity against Aspergillus nidulans ATCC 38163 measured after 48 hrs by CLSI M38-A2 protocol based method. The format is functional. The note with it: ATCC 38163, 48 h.
In the next assay the test system is Aspergillus flavus. In words: Antifungal activity against Aspergillus flavus ATCC MYA-3631 measured after 48 hrs by CLSI M38-A2 protocol based method. In kind it is functional. The settings on record: ATCC MYA-3631, 48 h.
The next assay concerns Aspergillus terreus. Briefly: Antifungal activity against Aspergillus terreus ATCC MYA-3633 measured after 48 hrs by CLSI M38-A2 protocol based method. In kind it is functional. The settings on record: ATCC MYA-3633, 48 h.
Assay [11] concerns Nakaseomyces glabratus. Briefly: Antifungal activity against Candida glabrata isolate CG1 measured after 48 hrs by CLSI M27-A3 protocol based method. The settings on record: Nakaseomyces glabratus, 48 h; read-out: MIC. The format is functional.
Assay [12] concerns Nakaseomyces glabratus. Briefly: Antifungal activity against Candida glabrata isolate CG2 measured after 48 hrs by CLSI M27-A3 protocol based method. The format is functional. The note with it: Nakaseomyces glabratus, isolate CG2, 48 h; read-out: MIC.
For assay [13], the system named is Nakaseomyces glabratus. Briefly: Antifungal activity against Candida glabrata isolate CG3 measured after 48 hrs by CLSI M27-A3 protocol based method. The format is functional. The note with it: Nakaseomyces glabratus, 48 h; read-out: MIC.
Assay [14] has as its system Candida parapsilosis. Briefly: Antifungal activity against Candida parapsilosis isolate CP1 measured after 48 hrs by CLSI M27-A3 protocol based method. In kind it is functional. The settings on record: Lodderomyces parapsilosis, isolate CP1, 48 h.
In assay [15] the test system is Candida parapsilosis. Briefly: Antifungal activity against Candida parapsilosis isolate CP2 measured after 48 hrs by CLSI M27-A3 protocol based method. The format is functional. The settings on record: Lodderomyces parapsilosis, isolate CP2, 48 h.
The test system of assay [16] is Cryptococcus neoformans. In words: Antifungal activity against Cryptococcus neoformans isolate CN1 measured after 48 hrs by CLSI M27-A3 protocol based method. In kind it is functional. The settings on record: isolate CN1, 48 h.
Assay [17] deals with Cryptococcus neoformans. Briefly: Antifungal activity against Cryptococcus neoformans isolate CN3 measured after 48 hrs by CLSI M27-A3 protocol based method. The note with it: Cryptococcus neoformans, isolate CN3, 48 h; read-out: MIC. In kind it is functional.
Assay [18] deals with Candida parapsilosis. Briefly: Antifungal activity against Candida parapsilosis isolate CP3 measured after 48 hrs by CLSI M27-A3 protocol based method. The format is functional. The note with it: Lodderomyces parapsilosis, isolate CP3, 48 h.

Structures are written as SMILES. Converted amounts (≈) assume the structure as drawn.

As usually defined, the MIC is the lowest concentration found to suppress growth.

`OCCCCCCNCC(O)(Cn1cncn1)c1ccc(F)cc1F` (stereo not drawn): the MIC with Cryptococcus neoformans [1] was greater than 88.3 µM; in the assay with Candida albicans [2], greater than 88.3 µM; in the assay with Candida albicans [3] it was greater than 88.3 µM; in the assay with Candida albicans [4], 88.3 µM (≈ 31.3 µg/mL); in the assay with Candida albicans [5] it was 88.3 µM (≈ 31.3 µg/mL); with Candida albicans [6] it was greater than 88.3 µM. The MIC in the assay on Candida albicans [7], with Candida albicans [8], in the assay with Nakaseomyces glabratus [9], in the assay on Pichia kudriavzevii, against Candida parapsilosis [10] and against Aspergillus nidulans was greater than 88.3 µM in each case. The MIC was greater than 88.3 µM in the assay with Aspergillus flavus; greater than 88.3 µM with Aspergillus terreus; greater than 88.3 µM in the assay with Nakaseomyces glabratus [11]; greater than 88.3 µM in the assay on Nakaseomyces glabratus [12]; greater than 88.3 µM with Nakaseomyces glabratus [13]; 88.3 µM (≈ 31.3 µg/mL) in the assay with Candida parapsilosis [14]. In addition, the MIC was 88.3 µM (≈ 31.3 µg/mL) in the assay with Candida parapsilosis [15], greater than 88.3 µM in the assay on Cryptococcus neoformans [16], greater than 88.3 µM with Cryptococcus neoformans [17] and 88.3 µM (≈ 31.3 µg/mL) in the assay with Candida parapsilosis [18].

Consider `CC[C@H](C)C[C@H](C)CCCCCCCCC(=O)N[C@H]1C[C@@H](O)[C@@H](NCCN)NC(=O)[C@@H]2[C@@H](O)CCN2C(=O)[C@H]([C@H](O)CCN)NC(=O)[C@H]([C@H](O)[C@@H](O)c2ccc(O)cc2)NC(=O)[C@@H]2C[C@@H](O)CN2C(=O)[C@H]([C@@H](C)O)NC1=O` [CASPOFUNGIN], for which the MIC with Cryptococcus neoformans [1] is 25.8 µM (≈ 28.2 µg/mL); against Candida albicans [2], 0.8 µM (≈ 0.875 µg/mL); in the assay with Candida albicans [3] it was 0.2 µM (≈ 0.219 µg/mL); with Candida albicans [4] it was 0.05 µM (≈ 0.0547 µg/mL); in the assay with Candida albicans [5], 0.1 µM (≈ 0.109 µg/mL); in the assay on Candida albicans [6], 0.1 µM (≈ 0.109 µg/mL). The MIC with Candida albicans [7] was 0.2 µM (≈ 0.219 µg/mL); with Candida albicans [8] it was 0.4 µM (≈ 0.437 µg/mL); in the assay with Nakaseomyces glabratus [9] it was 0.05 µM (≈ 0.0547 µg/mL); in the assay on Pichia kudriavzevii it was 0.4 µM (≈ 0.437 µg/mL); against Candida parapsilosis [10], 1.6 µM (≈ 1.75 µg/mL); with Aspergillus nidulans, greater than 25.8 µM. Besides, the MIC is greater than 25.8 µM in the assay with Aspergillus flavus; greater than 25.8 µM with Aspergillus terreus; 1.6 µM (≈ 1.75 µg/mL) with Nakaseomyces glabratus [11]; 0.2 µM (≈ 0.219 µg/mL) in the assay on Nakaseomyces glabratus [12]; 0.8 µM (≈ 0.875 µg/mL) in the assay on Nakaseomyces glabratus [13]; 0.4 µM (≈ 0.437 µg/mL) in the assay with Candida parapsilosis [14]. The MIC with Candida parapsilosis [15] stood at 0.4 µM (≈ 0.437 µg/mL); in the assay on Cryptococcus neoformans [16] it was 12.9 µM (≈ 14.1 µg/mL); with Cryptococcus neoformans [17], 12.9 µM (≈ 14.1 µg/mL); in the assay on Candida parapsilosis [18], 0.4 µM (≈ 0.437 µg/mL).

Consider `CC(C)c1ccc(NCC(O)(Cn2cncn2)c2ccc(F)cc2F)cc1` (stereo not drawn), for which the MIC with Cryptococcus neoformans [1] is 84 µM (≈ 31.3 µg/mL); with Candida albicans [2], greater than 84 µM; with Candida albicans [3], greater than 84 µM; with Candida albicans [4], greater than 84 µM; in the assay with Candida albicans [5], 84 µM (≈ 31.3 µg/mL); in the assay on Candida albicans [6], 84 µM (≈ 31.3 µg/mL). The minimal inhibitory concentration (MIC) was 84 µM (≈ 31.3 µg/mL) in the assay with Candida albicans [7]; 84 µM (≈ 31.3 µg/mL) in the assay with Candida albicans [8]; 20.9 to 84 µM (≈ 7.78 to 31.3 µg/mL) in the assay on Nakaseomyces glabratus [9]; greater than 84 µM with Pichia kudriavzevii; 20.9 µM (≈ 7.78 µg/mL) against Candida parapsilosis [10]; 20.9 µM (≈ 7.78 µg/mL) against Aspergillus nidulans. In addition, the MIC in the assay with Aspergillus flavus stood at 84 µM (≈ 31.3 µg/mL); against Aspergillus terreus, 41.9 µM (≈ 15.6 µg/mL); in the assay on Nakaseomyces glabratus [11] it was 20.9 µM (≈ 7.78 µg/mL); in the assay with Nakaseomyces glabratus [12], 20.9 µM (≈ 7.78 µg/mL); in the assay with Nakaseomyces glabratus [13] it was 20.9 µM (≈ 7.78 µg/mL); with Candida parapsilosis [14], 10.5 µM (≈ 3.91 µg/mL). Moreover, the MIC is 10.5 µM (≈ 3.91 µg/mL) against Candida parapsilosis [15], 20.9 µM (≈ 7.78 µg/mL) in the assay with Cryptococcus neoformans [16], greater than 84 µM in the assay on Cryptococcus neoformans [17] and 10.5 µM (≈ 3.91 µg/mL) with Candida parapsilosis [18].

In the case of `CCCCCCCCN(CCCCCCCC)CC(O)(Cn1cncn1)c1ccc(F)cc1F` (stereo not drawn), the MIC in the assay with Cryptococcus neoformans [1] is greater than 65.4 µM; against Candida albicans [2], 65.4 µM (≈ 31.3 µg/mL); with Candida albicans [3] it was greater than 65.4 µM; against Candida albicans [4], 65.4 µM (≈ 31.3 µg/mL); in the assay on Candida albicans [5] it was 65.4 µM (≈ 31.3 µg/mL); with Candida albicans [6], greater than 65.4 µM. In addition, the MIC with Candida albicans [7] was 65.4 µM (≈ 31.3 µg/mL); with Candida albicans [8], greater than 65.4 µM; in the assay on Nakaseomyces glabratus [9] it was 65.4 µM (≈ 31.3 µg/mL); against Pichia kudriavzevii, 65.4 µM (≈ 31.3 µg/mL); with Candida parapsilosis [10], 2 µM (≈ 0.957 µg/mL); in the assay with Aspergillus nidulans it was 32.7 µM (≈ 15.7 µg/mL). Further, the minimal inhibitory concentration (MIC) was greater than 65.4 µM with Aspergillus flavus; greater than 65.4 µM in the assay on Aspergillus terreus; 32.6 µM (≈ 15.6 µg/mL) with Nakaseomyces glabratus [11]; 16.3 µM (≈ 7.8 µg/mL) in the assay on Nakaseomyces glabratus [12]; 65.4 µM (≈ 31.3 µg/mL) in the assay with Nakaseomyces glabratus [13]; 2 µM (≈ 0.957 µg/mL) with Candida parapsilosis [14]. Moreover, the MIC against Candida parapsilosis [15] is 4.1 µM (≈ 1.96 µg/mL); against Cryptococcus neoformans [16], greater than 65.4 µM; with Cryptococcus neoformans [17], greater than 65.4 µM; against Candida parapsilosis [18], 4.1 µM (≈ 1.96 µg/mL).
